Data reported in article PMC11767950, “Human Serum Albumin and Human Serum Albumin Nanoparticles as Carriers of 10-(2′-Pyrimidyl)-3,6-diazaphenothiazine: In Vitro Spectroscopic Studies” (Molecules, 2025).
pKd: −log10 of the molar value.

Molecular target: T1, Human serum albumin (HSA) (Homo sapiens, UniProt P02768)
T1 construct: gene ALB
Assay: intrinsic fluorescence quenching (Stern-Volmer, Klotz Ka), dansyl amino acid marker displacement, far UV-CD
Type: binding
Settings: read-out: λex 275 nm / Ka [mol^-1.L] ± SD ^1

T1 sequence (P02768 25-609): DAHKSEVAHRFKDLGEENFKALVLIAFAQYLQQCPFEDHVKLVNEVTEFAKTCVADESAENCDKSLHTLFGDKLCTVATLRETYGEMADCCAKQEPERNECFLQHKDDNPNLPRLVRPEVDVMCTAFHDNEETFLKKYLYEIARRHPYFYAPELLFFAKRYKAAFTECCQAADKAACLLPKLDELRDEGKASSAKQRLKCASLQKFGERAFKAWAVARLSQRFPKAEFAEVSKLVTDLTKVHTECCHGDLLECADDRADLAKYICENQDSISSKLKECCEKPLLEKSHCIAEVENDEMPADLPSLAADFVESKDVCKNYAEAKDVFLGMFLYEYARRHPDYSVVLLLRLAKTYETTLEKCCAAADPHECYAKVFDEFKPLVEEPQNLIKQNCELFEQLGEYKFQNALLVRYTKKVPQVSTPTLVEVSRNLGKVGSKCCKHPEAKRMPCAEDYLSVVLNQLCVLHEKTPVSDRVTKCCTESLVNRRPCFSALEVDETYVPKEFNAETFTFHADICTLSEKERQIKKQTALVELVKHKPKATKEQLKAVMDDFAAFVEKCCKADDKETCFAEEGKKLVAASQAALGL

`c1cnc(N2c3ccncc3Sc3ncccc32)nc1` [10-Pyr-3,6-DAPT, 10-(2′-pyrimidyl)-3,6-diazaphenothiazine] showed a pKd of 4.72.
